From paper PMC8129988 (Inorganic Chemistry Frontiers, 2021)
Read-outs that look alike come from different tables or passages of the source.

Columns and labels:
cyclic voltammetry = type: physicochemical; conditions: DMF, 0.2 M [n-Bu4N][BF4], 1.5 mM complex, scan rate 100 mV s^-1
Method: Since the redox potential is a crucial characteristic for the activation of cobalt(III)-based prodrugs systems, we investigated the novel complexes by cyclic voltammetry in comparison to Co(acac)2LEGFR. Measurements were performed in dimethylformamide (DMF) (+0.2 M [n-Bu4N][BF4]) at a scan speed of 100 mV s^−1. […] Even at a higher scan speed of 1000 mV s^−1, the redox processes were still completely irreversible for all complexes (Fig. S5 ^†).
The compounds were dissolved in DMF (+0.2 M [n-Bu4N][BF4]) to obtain a final concentration of 1.5 mM. Electrochemical experiments were conducted on an EG&G PARC 273A potentiostat/galvanostat with a scan rate of 100–1000 mV s^−1 at room temperature. Argon was bubbled through the solution before every measurement to remove oxygen. A three-electrode configuration cell was used with a glassy carbon electrode as working electrode, which was polished before every measurement. The reference electrode was Ag/Ag^+/ACN (10 mM AgNO3) and the auxiliary electrode was a platinum wire. The potentials were referenced to an internal standard redox couple of ferrocenium/ferrocene and calculated to the NHE (E1/2 = +0.72 V vs. NHE).[63] […] Redox potentials measured relative to the Ag/AgCl/KCl (3.5 M) reference electrode and converted to the NHE using +0.205 V. Measurements were at least repeated three times and the mean values were calculated.

[1] = serum stability in fetal calf serum (HPLC-MS); type: in vitro ADME; conditions: 37 °C
Method: Therefore, we only investigated the stability of the novel complexes in fetal calf serum (FCS). As reference again Co(acac)2LEGFR[26] was included. The complexes were dissolved in 50 mM phosphate puffer and mixed 1 : 10 with fetal calf serum (FCS; buffered with 150 mM phosphate buffer to keep a stable pH of 7.4) to a final concentration of 50 μM. The samples were incubated at 37 °C and after 0, 2, 4, 6, 24 and 26 h extracted with acetonitrile and measured by HPLC-MS. […] This indeed confirms, that by avoiding the direct attachment of the ethylenediamine moiety to an aromatic ring system, complexes with much higher stability can be generated. Since no distinct difference in stability between Co(acac)2LPon and Co(Meacac)2LPon within 26 h could be observed, measurements were repeated up to 72 h.
For serum stability measurements, 135 μL FCS, buffered with 150 mM phosphate (Na2HPO4/NaH2PO4) to maintain a pH value of 7.4, were mixed with 15 μL of a 500 μM stock solution of the respective complex in 50 mM phosphate buffer to reach a final concentration of 50 μM. The samples were incubated at 37 °C. At different time points to 20 μL serum 40 μL of ACN were added. After vigorously shaking for 2 min the suspension was centrifuged at 6000 rpm for 10 min. The supernatant was taken with a syringe and directly measured via HPLC-MS. The samples were analyzed on an Agilent 1260 Infinity system using a Waters Atlantis T3 column (150 mm × 4.6 mm) coupled to a Bruker Amazon SL ESI-IT mass spectrometer. Water and acetonitrile (both containing 0.1% formic acid) were used as eluents with a gradient of 1–99% acetonitrile within 29 min.

K-562 cells = assay: cell-associated LPon fluorescence by flow cytometry (ligand release); type: cell-based, human; conditions: 24 h, 10 μM, normoxic
Method: Prior to the evaluation of the anticancer activity of our novel derivatives in cell culture models, we examined the stability of Co(acac)2LPon and Co(Meacac)2LPon in the presence of cells under normoxic conditions. The stability was determined by the appearance of LPon-associated fluorescence (vide supra) in BCR-ABL-driven K-562 leukemia cells via flow cytometry. […] Despite significant LPon-release from the two complexes over time (up to 24 h), in case of Co(Meacac)2LPon cell-associated fluorescence remained more than 7.5-fold lower after 24 h as compared to the free ligand.
Next, the impact of hypoxia on the stability of our novel derivatives was evaluated by monitoring intracellular fluorescence intensities under normoxic (21% O2) vs. hypoxic (0.1% O2) conditions. […] Hypoxic fluorescence activation in case of both cobalt(III) complexes was time-dependent, reaching significance after 6 h of compound incubation and resulting in 2- to 4-fold higher intensities.
Cells were seeded (1 × 10^6 cells per well) in 96-well plates, dissolved compounds were added and cells were incubated under normoxic or hypoxic cell culture conditions. Samples were measured on a BD LSRFortessa X-20 cell analyzer high throughput sampler (HTS) (BD Biosciences, East Rutherford, NJ, USA). Compound fluorescence was detected using 405 nm excitation and pacific blue (450/50 nm) band pass emission filters. […]

A431 = conditions: cited from earlier work
H1975 = conditions: cited from earlier work
ABL1 = ABL1 (Homo sapiens, UniProt P00519); assay: cell-free kinase inhibition assay (Z'-LYTE, SelectScreen); type: biochemical; conditions: 10-fold excess of ATP, 1% DMSO, read-out: IC50 against ABL1
ABL1, sequence (P00519 whole entry): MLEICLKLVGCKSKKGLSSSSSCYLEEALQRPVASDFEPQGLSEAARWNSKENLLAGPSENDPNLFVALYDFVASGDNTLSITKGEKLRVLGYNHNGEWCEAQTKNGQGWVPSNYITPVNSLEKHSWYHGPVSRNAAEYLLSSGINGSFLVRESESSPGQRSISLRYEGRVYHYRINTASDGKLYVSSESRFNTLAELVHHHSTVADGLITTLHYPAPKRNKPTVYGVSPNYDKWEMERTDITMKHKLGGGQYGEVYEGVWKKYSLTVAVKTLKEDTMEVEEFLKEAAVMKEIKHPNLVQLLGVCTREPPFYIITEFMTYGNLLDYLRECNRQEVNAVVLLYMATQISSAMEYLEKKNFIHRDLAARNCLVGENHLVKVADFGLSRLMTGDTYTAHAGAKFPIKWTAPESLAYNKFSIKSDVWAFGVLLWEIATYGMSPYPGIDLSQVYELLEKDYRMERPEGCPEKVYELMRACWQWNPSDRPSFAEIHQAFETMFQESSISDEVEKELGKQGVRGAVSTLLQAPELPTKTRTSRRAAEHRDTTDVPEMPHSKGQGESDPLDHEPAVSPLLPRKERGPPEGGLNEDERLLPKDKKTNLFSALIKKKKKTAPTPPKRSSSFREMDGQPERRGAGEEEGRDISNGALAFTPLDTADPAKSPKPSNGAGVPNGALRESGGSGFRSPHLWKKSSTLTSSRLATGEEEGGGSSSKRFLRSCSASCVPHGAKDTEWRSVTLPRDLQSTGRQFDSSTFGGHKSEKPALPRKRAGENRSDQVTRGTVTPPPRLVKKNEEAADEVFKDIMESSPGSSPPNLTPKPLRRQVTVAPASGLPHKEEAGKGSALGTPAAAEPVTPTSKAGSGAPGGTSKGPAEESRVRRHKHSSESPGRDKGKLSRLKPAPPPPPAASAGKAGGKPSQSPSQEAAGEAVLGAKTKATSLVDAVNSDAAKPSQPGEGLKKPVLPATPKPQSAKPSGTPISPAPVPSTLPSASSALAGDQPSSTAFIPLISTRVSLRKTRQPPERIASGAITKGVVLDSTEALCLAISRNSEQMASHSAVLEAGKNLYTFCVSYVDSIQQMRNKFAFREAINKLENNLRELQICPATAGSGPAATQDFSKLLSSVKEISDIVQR
Text: (§1) The test compounds were screened in a final concentration of 1% DMSO using the Z′-LYTE® Assay.

FGFR1 = FGFR1 (Homo sapiens, UniProt P11362); assay: as above; type: biochemical
FGFR1, sequence (P11362 22-822): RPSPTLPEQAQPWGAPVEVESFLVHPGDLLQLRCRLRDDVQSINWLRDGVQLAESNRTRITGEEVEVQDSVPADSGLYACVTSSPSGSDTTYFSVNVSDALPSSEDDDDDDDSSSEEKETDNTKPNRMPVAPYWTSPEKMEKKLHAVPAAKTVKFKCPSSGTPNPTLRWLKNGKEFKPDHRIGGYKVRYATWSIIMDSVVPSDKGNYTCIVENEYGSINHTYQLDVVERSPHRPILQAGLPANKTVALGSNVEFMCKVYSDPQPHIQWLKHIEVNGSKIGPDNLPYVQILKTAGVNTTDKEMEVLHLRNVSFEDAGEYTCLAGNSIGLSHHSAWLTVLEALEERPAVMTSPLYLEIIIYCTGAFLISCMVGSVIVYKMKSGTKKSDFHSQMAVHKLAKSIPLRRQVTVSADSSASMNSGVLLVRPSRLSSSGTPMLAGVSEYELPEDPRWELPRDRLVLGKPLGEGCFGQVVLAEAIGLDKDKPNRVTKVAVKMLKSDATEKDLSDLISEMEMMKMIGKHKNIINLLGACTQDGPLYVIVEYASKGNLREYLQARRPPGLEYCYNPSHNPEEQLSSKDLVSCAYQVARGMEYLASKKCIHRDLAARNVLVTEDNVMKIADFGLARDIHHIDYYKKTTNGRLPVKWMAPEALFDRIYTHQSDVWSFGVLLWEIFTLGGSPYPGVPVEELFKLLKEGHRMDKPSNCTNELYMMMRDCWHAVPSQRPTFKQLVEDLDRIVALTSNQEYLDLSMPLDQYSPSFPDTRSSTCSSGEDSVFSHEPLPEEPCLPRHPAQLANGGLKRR
Text: as §1

[2] = test system: BCR-ABL-positive K-562 leukemic cells; assay: MTT vitality assay, 72 h, normoxic vs hypoxic; type: cell-based; conditions: Homo sapiens, K562, 72 h, printed in picture Fig. 9A, read-out: IC50, K-562 cell viability
Method: In case of hypoxic cell culture conditions, plated and treated cells were incubated at 37 °C, 5% CO2 and 0.1% O2 (ProOx Model C21 system, BioSpherix) in humidified incubators for the indicated time point before analysis. All investigated compounds were dissolved in dimethyl sulfoxide (DMSO) as 10 mM stock solutions and were stored at −20 °C. Dilutions in culture media supplemented with 10% fetal calf serum were made immediately before the experiments at the indicated concentrations. Corresponding dilutions of DMSO were used as untreated vehicle controls.
Cells were seeded (3–7 × 10^4 cells per well) in 96-well plates and after 24 h recovery treated with increasing concentrations of compounds in triplicates. After 72 h drug exposure under normoxic or hypoxic cell culture conditions (0.1% O2) (ProOx Model C21 system, BioSpherix), the proportion of viable cells was determined by 3-(4,5-dimethylthiazol-2-yl)-2,5-diphenyltetrazolium bromide (MTT)-vitality assay (EZ4U, Biomedica, Vienna, Austria) or by luminescence assay based on adenosine triphosphate quantification (CellTiter-Glo, Promega, Madison, Wisconsin) following the manufacturer's recommendations. […] MTT-derived cytotoxicity was expressed as IC50 values calculated from full dose–response curves using GraphPad Prism software (La Jolla, CA).

UM-UC-14 cells = assay: ligand release by UV fluorescence microscopy; type: cell-based, human; conditions: 10 μM, 24 h, UM-UC-14, fluorescence microscopy
Method: The enhanced stability of Co(acac)2LPon under normoxia and its hypoxia-induced ligand release was subsequently confirmed by fluorescence microscopy. Fluorescence intensities indicated a ∼2.8-fold decreased stability of the cobalt(III) complex under hypoxic vs. normoxic cell culture conditions.
UM-UC-14 cells were seeded (2.5 × 10^5 cells per well) in 12-well plates and after 24 h recovery treated with 10 μM of compounds. After 24 h incubation, the drug solutions were removed, cells were washed with PBS and microphotographs of the different treatments were taken using UV fluorescence microscopy (Nikon Eclipse Ti2 microscope with a DAPI filter and a high-pressure mercury lamp) and a 20× objective. The level of cellular fluorescence was determined from fluorescence microscopy images using ImageJ software.
Figure S9: Ligand release of Co(acac)2LPon under normoxic and hypoxic cell culture conditions in comparison to LPon using UV fluorescence microscopy. UM-UC-14 cells were incubated with 10 µM of compounds for 24 h. Images of the different treatments were taken by UV fluorescence microcopy (20X objective) and the corrected total cell fluorescence was evaluated using ImageJ software. Data in Figure S9B are given as means ± SD of ten analyzed microphotographs per compound. Statistical significance was calculated by unpaired t test with p < .05(*). […]

[3] = test system: p-ERK1/2 and p-S6 in K-562 cells; assay: western blot of downstream signalling, 12 h; type: cell-based, human; conditions: K-562, 12 h, western blot
Method: Fig. 10 Impact of the cobalt(III) complexes on the ERK1/2 and S6 under normoxic and hypoxic conditions. K-562 cells were treated with the compounds, after 12 h cell lysates were prepared and protein expression as well as phosphorylation levels of downstream pathways (p-ERK1/2 and p-S6) analyzed by western blotting. One representative experiment out of three is shown. The ratio of phosphorylated to total protein is given between the respective lanes.
K-562 cells were plated (5 × 10^5 cells per well) in 6-well plates and allowed to recover for 24 h. Subsequently, the cells were treated with the drugs in different concentrations. After 12 h cells were harvested, proteins were isolated, resolved by sodium dodecyl sulfate polyacrylamide gel electrophoresis (SDS/PAGE), and transferred onto a polyvinylidene difluoride membrane for western blotting. The following antibodies were used: ERK1/2 (p44/42) rabbit monoclonal antibody (mAb) (137F5, #4695), phospho-ERK1/2 rabbit mAb (Thr202/Tyr204) (20G11, #4376), phospho-S6 rabbit pAb (Ser240/244, #2215) (Cell Signaling Technology, Beverly, MA, USA), S6 mouse mAb (C-8. #sc-74459) (Santa Cruz Biotechnology, TX, USA) and β-actin mouse mAb (#A5441, Sigma). All primary antibodies were used in 1 : 1000 dilutions (in Tris-buffered saline containing 0.1% Tween20 (TBST) + 3% bovine serum albumin (BSA)). Secondary goat anti-mouse-IgG (Fc specific)-peroxidase antibody (#A0168, Sigma) and horseradish peroxidase(HRP)-labeled mouse anti-rabbit IgG (#sc-2357, Santa Cruz Biotechnology) were used at working dilutions of 1 : 10 000 (in TBST + 1% BSA).

[4] = normoxic as well as hypoxic conditions

CC(=O)C(C)=C(C)[O-].CC(=O)C(C)=C(C)[O-].Cc1ccc(C(=O)Nc2ccc(CNCCN)c(C(F)(F)F)c2)cc1C#Cc1cnc2cccnn12.O=C(O)C(F)(F)F.[Co+3] [Co(Meacac)2LPon, Bis(3-methyl-2,4-pentanedionato) N-(4-(((2-aminoethyl)amino)methyl)-3-(trifluoromethyl)phenyl)-3-(imidazo[1,2-b]pyridazin-3-ylethynyl)-4-methylbenzamide cobalt(III) 2,2,2-trifluoroacetate]
cathodic peak potential (Co(III) to Co(II), irreversible) (cyclic voltammetry): −442 mV vs. NHE
intact complex remaining in FCS ([1]; 26 h, pH 7.4, 50 μM): ~90%
intact compound remaining in FCS ([1]; 72 h, pH 7.4): ~80%
cell-associated fluorescence, fold lower than the free ligand (K-562 cells): more than 7.5 fold

[Cl-].[Cl-].[Co+2] [CoCl2]
cytotoxic activity (A431): no significant cytotoxic activity
cytotoxic activity (H1975): no significant cytotoxic activity

Cc1ccc(C(=O)Nc2ccc(CNCCN)c(C(F)(F)F)c2)cc1C#Cc1cnc2cccnn12 [LPon, N-(4-(((2-Aminoethyl)amino)methyl)-3-(trifluoromethyl)phenyl)-3-(imidazo[1,2-b]pyridazin-3 ylethynyl)-4-methylbenzamide·3TFA]
IC50 (ABL1): 1.93 nM
factor by which FGFR inhibition is weaker than ponatinib (FGFR1; cell-free IC50 ratio vs ponatinib): ~5
IC50 (FGFR1; cell-free, 10-fold excess of ATP, 1% DMSO, read-out: IC50 against FGFR1): 25.9 nM
IC50 ([2]; hypoxic (H, 0.1% O2)): 3.67 nM
IC50 ([2]; normoxic (N, 21% O2)): 4.57 nM
fluorescence intensity change (decreased stability) hypoxic vs. normoxic (UM-UC-14 cells): remained unaffected
activity on ERK1/2 and S6 phosphorylation, normoxic vs hypoxic [3]: equally active under the two oxygen conditions

CC(=O)[CH-]C(C)=O.CC(=O)[CH-]C(C)=O.NCCN.[Co+2] [[Co(II)(acac)2en]]
cytotoxic activity (A431; [4]): no significant cytotoxic activity
cytotoxic activity (H1975; [4]): no significant cytotoxic activity

CC(=O)[CH-]C(C)=O.CC(=O)[CH-]C(C)=O.F[P-](F)(F)(F)(F)F.NCCN.[Co+3] [[Co(III)(acac)2en]PF6]
cytotoxic activity (A431; [4]): no significant cytotoxic activity
cytotoxic activity (H1975; [4]): no significant cytotoxic activity
